These results are taken from EP0562497A1, “1 alpha-hydroxy vitamins D7 and D4' processes for the preparation thereof and pharmaceutical compositions” (NISSHIN FLOUR MILLING CO., LTD., priority 1992, dated 1993).

In the series the test system is Female Wistar rats. Briefly: Activity test in ovariectomized, right sciatic nerve amputated rats: femur bone density and serum calcium after 6 weeks of oral administration. To be noted: for Serum calcium concentration / Bone density: 5 days per week for 6 weeks; for Serum calcium concentration: blood drawn the day after final administration; for Bone density: right femur, ash weight/volume, ovariectomy and sciatic nerve amputation; for increase in bone density / increase in serum calcium concentration: in words, compared with known 1α-hydroxy vitamin D₃, summary of Table 1. The series is classed as in vivo. From the text: Seventy two rats were subjected to bilateral ovariectomy and right sciatic nerve amputation. Rats were divided into 9 groups of eight animals each. Another group of eight rats was subjected to sham operation. Over a period of 6 weeks after operation, each group was orally administered either 1α-hdyroxy vitamin D₃, 1α-hydroxy vitamin D₇ or 1α-hydroxy vitamin D₄ dissolved in 0.5% ethanol/porpyleneglycol (vehicle) at the frequency of 5 days per week. The sham operated group and control group were orally administered the vehicle alone. The next day after final administration, rats were killed, blood was drawn from abdominal cave and right femur was extracted. The bone volume of femur was measured in accordance with Archimedes' principle. After heat treatment at 700°C for 24 hrs, the weight of bone ash was measured. From these measured values, the bone density (ash weight/volume) of each femur was calculated. Serum calcium concentration was determined according to usual method.

Consider `C=C1/C(=C\C=C2/CCC[C@]3(C)[C@@H]([C@H](C)CCCC(C)C)CC[C@@H]23)C[C@@H](O)C[C@@H]1O` [1α-OH-D3, 1α-hydroxy vitamin D₃, reference compound], for which the Serum calcium concentration turned out to be 10.8 ± 0.1 mg/dL (0.02 µg/kg/day oral), 11.0 ± 0.1 mg/dL (0.1 µg/kg/day oral) and 12.4 ± 0.2 mg/dL (0.5 µg/kg/day oral). For the same molecule, the Bone density (0.02 µg/kg/day oral) is 0.556±0.005 mg/mm^3, the Bone density (0.1 µg/kg/day oral) stood at 0.545±0.007 mg/mm^3 and the Bone density (0.5 µg/kg/day oral) is recorded as 0.560±0.006 mg/mm^3.
For `C=C1/C(=C\C=C2/CCC[C@]3(C)[C@@H]([C@H](C)CC[C@H](C)C(C)C)CC[C@@H]23)C[C@@H](O)C[C@@H]1O` [1α-OH-D4, 1α-hydroxy vitamin D₄], the “increase in bone density” value is reported as “much greater increase in bone density” and the “increase in serum calcium concentration” value is given as “lesser increase in serum calcium concentration”. In addition, under “0.5 µg/kg/day oral”, the Serum calcium concentration amounted to 10.5 ± 0.2 mg/dL and the Bone density turned out to be 0.576±0.006 mg/mm^3. Moreover, for the setting “2.5 µg/kg/day oral”, the Serum calcium concentration worked out at 11.0 ± 0.4 mg/dL and the Bone density was found to be 0.583 ± 0.003 mg/mm^3.
Take `C=C1/C(=C\C=C2/CCC[C@]3(C)[C@@H]([C@H](C)CC[C@@H](C)C(C)C)CC[C@@H]23)C[C@@H](O)C[C@@H]1O` [1α-OH-D7, 1α-hydroxy vitamin D₇]: the “increase in bone density” value was “much greater increase in bone density” and the “increase in serum calcium concentration” value is “lesser increase in serum calcium concentration”. Also, for the setting “0.5 µg/kg/day oral”, the Serum calcium concentration was found to be 10.5 ± 0.1 mg/dL and the Bone density came out at 0.581±0.004 mg/mm^3. Under “2.5 µg/kg/day oral”, the Serum calcium concentration amounted to 10.7 ± 0.3 mg/dL and the Bone density worked out at 0.585±0.007 mg/mm^3. Besides, where the note is “12.5 µg/kg/day oral”, the Serum calcium concentration was 10.9 ± 0.5 mg/dL and the Bone density came to 0.589±0.004 mg/mm^3.
